# Results as given in US20210401826A1, “ABUSE DETERRENT PHARMACEUTICAL FORMULATIONS” (AVEKSHAN, LLC., priority 2018, published 2021).
# Values joined by “and” are separate entries in the source; they are usually repeats but may differ in a detail not shown here. Equal values may be shown once. Where a name gives a salt, the structure may show the parent alone. Read-outs that look alike come from different tables or passages of the source.
# Assays:
# [1] = Solubility study of naltrexone and methylphenidate in common solvents and household items (visual examination); type: physicochemical
# Description: The solubility of naltrexone and methylphenidate was evaluated in various commonly available solvents and household items, including water, cola soft drinks, ethanol, vinegar, nail polish remover, toluene, turpentine, and baking soda solution (see Table 1). The solubility results were determined by visual examination of each solution after warming and several hours of mixing. The solubility results are presented below in Table 1.
# [2] = Separation of naltrexone and methylphenidate from a 1:1 mixture using acetone; type: physicochemical; conditions: for % NTX / MPH Recovered / NTX / MPH / mg NTX / MPH Recovered: Prep. A and B
# Description: In this example, equal amounts of methylphenidate and naltrexone (20 mg each) were combined and then separated. To separate the methylphenidate from the naltrexone, only materials representing commonly available household items were used, e.g., acetone (nail polish remover), water, small glass containers, a hot plate and a coffee filter. Three sources of acetone were used, all of which are available to the public, including lab grade acetone, nail polish remover, and acetone heavy-duty cleaner.
# Conditions for the separation, such as acetone volume and extraction time, were tested and adjusted.
# [3] = 0.2% baking soda solution, aqueous buffer, thermodynamic from solid, read-out: Solubility
# [4] = 25:75 acetone:water, aqueous with cosolvent or surfactant or cyclodextrin, thermodynamic from solid, 25:75 Acetone:H2O, read-out: Solubility
# [5] = 40% ethanol, aqueous with cosolvent or surfactant or cyclodextrin, thermodynamic from solid, read-out: Solubility
# [6] = 50:50 acetone:water, aqueous with cosolvent or surfactant or cyclodextrin, thermodynamic from solid, 50:50 Acetone:H2O, read-out: Solubility
# [7] = Coca-Cola, aqueous buffer, thermodynamic from solid, read-out: Solubility
# [8] = DMF, organic solvent or mixture, thermodynamic from solid, read-out: Solubility
# [9] = DMSO, organic solvent or mixture, thermodynamic from solid, read-out: Solubility
# [10] = acetone, organic solvent or mixture, thermodynamic from solid, read-out: Solubility
# [11] = acetonitrile, organic solvent or mixture, thermodynamic from solid, read-out: Solubility
# [12] = aqueous buffer, thermodynamic from solid, 0.1M Sodium Hydroxide, read-out: Solubility
# [13] = canola oil, oil or lipid, thermodynamic from solid, read-out: Solubility
# [14] = ethanol, organic solvent or mixture, thermodynamic from solid, read-out: Solubility
# [15] = ethyl acetate, organic solvent or mixture, thermodynamic from solid, read-out: Solubility
# [16] = hexanes, organic solvent or mixture, thermodynamic from solid, read-out: Solubility
# [17] = isopropyl alcohol, organic solvent or mixture, thermodynamic from solid, read-out: Solubility
# [18] = methanol, organic solvent or mixture, thermodynamic from solid, read-out: Solubility
# [19] = methyl ethyl ketone, organic solvent or mixture, thermodynamic from solid, read-out: Solubility
# [20] = mineral spirits, organic solvent or mixture, thermodynamic from solid, read-out: Solubility
# [21] = naphtha, organic solvent or mixture, thermodynamic from solid, read-out: Solubility
# [22] = simulated gastric fluid, thermodynamic from solid, 0.1M Hydrochloric Acid, read-out: Solubility
# [23] = toluene, organic solvent or mixture, thermodynamic from solid, read-out: Solubility
# [24] = turpentine, organic solvent or mixture, thermodynamic from solid, read-out: Solubility
# [25] = vinegar, aqueous buffer, thermodynamic from solid, read-out: Solubility
# [26] = water, thermodynamic from solid, read-out: Solubility
# [27] = xylene, organic solvent or mixture, thermodynamic from solid, read-out: Solubility
# [28] = Acetone Cleaner 20 mL, listed as NTX, HCl
# [29] = Acetone Cleaner 50 mL, listed as NTX, HCl
# [30] = Lab Grade Acetone 20 mL, listed as NTX, HCl
# [31] = Nail Polish Remover 20 mL, listed as NTX, HCl
# [32] = Nail Polish Remover 50 mL, listed as NTX, HCl
# [33] = Acetone Cleaner 20 mL, listed as MPH, HCl
# [34] = Lab Grade Acetone 20 mL, listed as MPH, HCl
# [35] = Lab Grade Acetone 50 mL, listed as MPH, HCl
# [36] = Nail Polish Remover 20 mL, listed as MPH, HCl
# [37] = Nail Polish Remover 50 mL, listed as MPH, HCl
structure (smiles),measurement,setting,value
O=C1CC[C@@]2(O)[C@H]3Cc4ccc(O)c5c4[C@@]2(CCN3CC2CC2)[C@H]1O5 [Naltrexone HCl],solubility,[1]; [3],> 1000 µg/mL
same,solubility,[1]; [4],> 1000 µg/mL
same,solubility,[1]; [5],> 1000 µg/mL
same,solubility,[1]; [6],> 1000 µg/mL
same,solubility,"[1]; Acetone, HCl",<100 µg/mL
same,solubility,[1]; [7],> 1000 µg/mL
same,solubility,[1]; [8],> 1000 µg/mL
same,solubility,[1]; [9],> 1000 µg/mL
same,solubility,[1]; [10],< 100 µg/mL
same,solubility,[1]; [11],100 to 500 µg/mL
same,solubility,[1]; [12],> 1000 µg/mL
same,solubility,[1]; [13],< 100 µg/mL
same,solubility,[1]; [14],> 1000 µg/mL
same,solubility,[1]; [15],< 100 µg/mL
same,solubility,[1]; [16],< 100 µg/mL
same,solubility,[1]; [17],< 100 µg/mL
same,solubility,[1]; [18],> 1000 µg/mL
same,solubility,[1]; [19],< 100 µg/mL
same,solubility,[1]; [20],< 100 µg/mL
same,solubility,[1]; [21],< 100 µg/mL
same,solubility,[1]; [22],> 1000 µg/mL
same,solubility,[1]; [23],< 100 µg/mL
same,solubility,[1]; [24],< 100 µg/mL
same,solubility,[1]; [25],> 1000 µg/mL
same,solubility,[1]; [26],> 1000 µg/mL
same,solubility,[1]; [27],< 100 µg/mL
same,% NTX / MPH Recovered,[2]; [28],5.1% and 8.5%
same,NTX / MPH,[2]; [28],0.05 mg/mL and 0.09 mg/mL
same,mg NTX / MPH Recovered,[2]; [28],1.02 mg and 1.7 mg
same,NTX / MPH,[2]; Acetone Cleaner 50 mL,0.13 mg/mL
same,% NTX / MPH Recovered,[2]; [29],13.4% and 12.5%
same,mg NTX / MPH Recovered,[2]; [29],2.68 mg and 2.5 mg
same,% NTX / MPH Recovered,[2]; [30],5.2% and 6.5%
same,NTX / MPH,[2]; [30],0.05 mg/mL and 0.06 mg/mL
same,mg NTX / MPH Recovered,[2]; [30],1.04 mg and 1.3 mg
same,% NTX / MPH Recovered,[2]; [31],5.6% and 8.6%
same,NTX / MPH,[2]; [31],0.06 mg/mL and 0.09 mg/mL
same,mg NTX / MPH Recovered,[2]; [31],1.12 mg and 1.72 mg
same,NTX / MPH,"[2]; Nail Polish Remover 50 mL, 20 mg each drug combined, listed as NTX, HCl",0.14 mg/mL and 0.15 mg/mL
same,% NTX / MPH Recovered,[2]; [32],13.8% and 15.4%
same,mg NTX / MPH Recovered,[2]; [32],2.76 mg and 3.08 mg
COC(=O)C(c1ccccc1)C1CCCCN1 (stereo not drawn) [Methylphenidate HCl],solubility,[1]; [3],> 1000 µg/mL
same,solubility,[1]; [4],> 1000 µg/mL
same,solubility,[1]; [5],> 1000 µg/mL
same,solubility,[1]; [6],> 1000 µg/mL
same,solubility,"[1]; Acetone, HCl",>1000 µg/mL
same,solubility,[1]; [7],> 1000 µg/mL
same,solubility,[1]; [8],> 1000 µg/mL
same,solubility,[1]; [9],> 1000 µg/mL
same,solubility,[1]; [10],> 1000 µg/mL
same,solubility,[1]; [11],> 1000 µg/mL
same,solubility,[1]; [12],> 1000 µg/mL
same,solubility,[1]; [13],< 100 µg/mL
same,solubility,[1]; [14],> 1000 µg/mL
same,solubility,[1]; [15],100 to 500 µg/mL
same,solubility,[1]; [16],100 to 500 µg/mL
same,solubility,[1]; [17],> 1000 µg/mL
same,solubility,[1]; [18],> 1000 µg/mL
same,solubility,[1]; [19],500 to 1000 µg/mL
same,solubility,[1]; [20],< 100 µg/mL
same,solubility,[1]; [21],< 100 µg/mL
same,solubility,[1]; [22],> 1000 µg/mL
same,solubility,[1]; [23],< 100 µg/mL
same,solubility,[1]; [24],< 100 µg/mL
same,solubility,[1]; [25],> 1000 µg/mL
same,solubility,[1]; [26],> 1000 µg/mL
same,solubility,[1]; [27],< 100 µg/mL
same,mg NTX / MPH Recovered,[2]; Acetone Cleaner 20 mL,15.9 mg
same,% NTX / MPH Recovered,[2]; [33],79.5% and 79.7%
same,NTX / MPH,[2]; [33],0.79 mg/mL and 0.80 mg/mL
same,NTX / MPH,[2]; Acetone Cleaner 50 mL,0.92 mg/mL
same,mg NTX / MPH Recovered,[2]; Acetone Cleaner 50 mL,18.4 mg
same,% NTX / MPH Recovered,"[2]; Acetone Cleaner 50 mL, listed as MPH, HCl",92.0% and 91.8%
same,% NTX / MPH Recovered,[2]; [34],76.4% and 73.7%
same,NTX / MPH,[2]; [34],0.76 mg/mL and 0.74 mg/mL
same,mg NTX / MPH Recovered,[2]; [34],15.3 mg and 14.7 mg
same,% NTX / MPH Recovered,[2]; [35],91.5% and 92.4%
same,NTX / MPH,[2]; [35],0.91 mg/mL and 0.92 mg/mL
same,mg NTX / MPH Recovered,[2]; [35],18.3 mg and 18.5 mg
same,mg NTX / MPH Recovered,[2]; Nail Polish Remover 20 mL,14.6 mg
same,% NTX / MPH Recovered,[2]; [36],73.0% and 79.4%
same,NTX / MPH,[2]; [36],0.73 mg/mL and 0.79 mg/mL
same,mg NTX / MPH Recovered,[2]; [36],15.9 mg
same,NTX / MPH,"[2]; Nail Polish Remover 50 mL, 20 mg each drug combined, listed as MPH, HCl",0.91 mg/mL and 0.90 mg/mL
same,% NTX / MPH Recovered,[2]; [37],91.4% and 90.1%
same,mg NTX / MPH Recovered,[2]; [37],18.3 mg and 18.0 mg
same,% of methylphenidate extracted,[2]; depending on the volume of acetone used,73-92%
